Measurements as given in US20250382631A1, “PROTAC-CID SYSTEMS FOR USE IN MULTIPLEX GENE REGULATION” (William Marsh Rice University, priority 2022, published 2025).

Tests used:
[1] = biological target: T1, endogenous BRD4 (Mus musculus, UniProt Q9ESU6); test: Immunoblot of endogenous BRD4 in mice liver tissue; assay type: in vivo, FVB mice; settings: 50 mg/kg MZ1 i.p., FIG. 21
T1 construct: Immunoblot analysis of endogenous long isoform BRD4 (BRD4L) after 50 mg/kg MZ1 treatment i.p; from tissue; host or cells: liver of FVB mice (AAV-infected, MZ1-treated)
From the text: Immunoblots and RT-qPCR. Mice liver tissues or culture cells were lysed in RIPA buffer (Abcam no. ab156034) supplemented with phosphatase inhibitor (Thermo Fisher Scientific no. PIA32957) and protease inhibitors (Fishers cientific no. A32965). Lysates were resolved by 10% Tris-glycine SDS-PAGE, transferred to PVDF membrane (Bio-Rad no. 1620177), and blotted with antibodies BRD4 (Abcam, ab128874), GAPDH (Cell Signaling Technology, 2118L), luciferase (ABclonal, requested), Ran (ABclonal, A0976), Hsp90 (Cell Signaling Technology, 4874). Images were acquired using LumiQuant AC600 (Acuronbio Technology Inc), quantification analysis was processed by ImageJ software. Trizol reagent (Sigma no. T9424) was used to extract total RNA from liver. RNAs were purified using RNeasy Mini kit (QIAGEN no. 4106). The quality and concentration of total RNA were checked on NanoDrop™ 2000/2000c Spectrophotometers (Thermo Fisher Scientific no. ND2000LAPTOP). Reverse transcription of total RNA was performed using a Applied Biosystems™ High-Capacity cDNA Reverse Transcription Kit (Thermo Fisher Scientific no. 4368813) and qPCR was conducted with SYBR Green Master Mix (Abclonal no. RK21203) on QuantStudio 6 Real-time PCR system (Thermo Fisher Scientific).
AAV production and Mouse for in vivo delivery. […] FVB mice were purchased from the Jackson Laboratory.

[2] = test system: pUAS-2-driven Fluc in HEK293T cells co-infected with Virus a and Virus b; test: AAV infection of HEK293T cells, luciferase bioluminescence; assay type: cell-based, human; settings: 100 nM MZ1, three days post-infection, FIG. 4B
Procedure: AAV infection on HEK293T cells. Before infection, HEK293T cells were seeded into 96 well plates (Corning no. 3610). When the confluency reaching 50%, 1 μL of each purified AAV virus (Virus a and Virus b in FIGS. 4 and 19) were added into the supernatant of HEK293T cells. 100 nM of MZ1 or DMSO was added into the supernatant. Three days post-infection, cells with 80 μL medium were treated with 40 μL lysis buffer (500 mM DTT, 10 mM coenzyme A, 100 mM ATP, 80 mg/mL D-luciferin, Triton lysis buffer (0.1082 M Tris-HCl, 0.0419 M Tris-Base, 75 mM NaCl, 3 mM MgCl2)). To lysis the cells Plate was shaken by plate reader Infinite M200 (TECAN) with 20 seconds in “Orbital” mode with frequency of 432 rpm and Amplitude of 1 mm. Relative light units of luminescence was recorded by plate reader Infinite M200 (TECAN) with 1000 ms integration time using Megellan v1.7 (TECAN).

Cc1ncsc1-c1ccc(CNC(=O)[C@@H]2C[C@@H](O)CN2C(=O)[C@@H](NC(=O)COCCOCCOCCNC(=O)C[C@@H]2N=C(c3ccc(Cl)cc3)c3c(sc(C)c3C)-n3c(C)nnc32)C(C)(C)C)cc1 [MZ1]
expression of BRD4 in mice liver tissue [1]: did not observe a significant change in the expression of BRD4
increase in luciferase bioluminescence intensity [2]: more than 60 fold
